Reference: patent publication US20230286973A1, “PROTEIN SECRETION INHIBITORS” (KEZAR LIFE SCIENCES, priority 2020, published 2023)

Experiments:
[1] = test system: PD1-ss+10aa/Gaussia Luciferase; assay: Dox-Induced PD1-ss-Gluc Assay; type: cell-based; settings: 24 hr Dox induction; 293FRT/TO cells; read-out: 24 hr Dox Inducible PD1ssGluc 293FRT/TO: Mean IC50
In short: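 Flp-In 293 T-REx, stable line; Tet-regulated PD1-ss+10aa fused to Gaussia luciferase; plated day prior; cpd + doxycycline in DMSO/media; 37 °C, 5% CO2.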

[2] = test system: TNFα-FL/Gaussia Luciferase; assay: Dox Induced TNFα-FL-Gluc Assay; type: cell-based; settings: for IC50: 24 hr Dox induction, 293FRT/TO cells, read-out: 24 hr Dox Inducible TNFaFLGluc 293FRT/TO: Mean IC50; for 24 hr Dox Inducible TNFaFLGluc 293FRT/TO: TNF/PD1: ratio of TNFaFLGluc IC50 to PD1ssGluc IC50
In short: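 Compound was added with doxycycline to cells plated a day earlier, incubating at 37° C under 5% CO2. The reporter line is 293 T-REx expressing a TNFα (1-233)–Gaussia luciferase fusion under tetracycline-regulated control.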

[3] = test system: HER3-ss+4aa/Gaussia Luciferase; assay: Dox-Induced Her3-ss-Gluc Assay; type: cell-based; settings: 24 hr Dox induction; 293FRT/TO cells; read-out: 24 hr Dox Inducible Her3(ss + 4)Gluc 293FRT/TO: Mean IC50
In short: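 Compounds were diluted in DMSO/media containing doxycycline. They were added to Flp-In 293 T-REx cells plated the previous day, then incubated at 37 °C under 5% CO2. These cells stably express, under T-REx control, Gaussia luciferase fused to the HER3 signal sequence plus 4 amino acids.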

[4] = test system: IL-2-FL/Gaussia Luciferase; assay: Dox Induced IL2-FL-Gluc Assay; type: cell-based; settings: for IC50: 24 hr Dox induction, 293FRT/TO cells, read-out: 24 hr Dox Inducible IL2FLGluc 293FRT/TO: Mean IC50; for 24 hr Dox Inducible IL2FLGluc 293FRT/TO: IL2/PD1: ratio of IL2FLGluc IC50 to PD1ssGluc IC50
In short: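 Compounds in DMSO/medium with doxycycline were applied to a 293 T-REx stable line expressing an IL-2 (aa 1-153)–Gaussia luciferase fusion under tetracycline-regulated control, cells seeded one day earlier; incubation at 37 °C, 5% CO2. Structures drawn without stereochemistry were tested as stereoisomer mixtures.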

[5] = test system: multiple myeloma cell line NCI-H929; assay: H929 Cell Viability Assay; type: cell-based, human; settings: Homo sapiens, NCI-H929, 48 h, NCI-H929 cells, Celltiter-Glo
In short: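 Luminescent CellTiter-Glo read-out of viability after a 48 h exposure (37° C, 5% CO2) of NCI-H929 myeloma cells to compound dilutions in RPMI 1640 plus 10% FBS. Data for structures drawn without stereochemistry refer to stereoisomer mixtures.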

[6] = test system: multiple myeloma cell line U266B1; assay: U266 Cell Viability Assay; type: cell-based, human; settings: Homo sapiens, U-266, 48 h, U266B1 cells, Celltiter-Glo
In short: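 CellTiter-Glo luminescence was read after a 48 h compound exposure (37 °C, 5% CO2) of human U266B1 myeloma cells grown in 10% FBS-supplemented RPMI 1640. Data for structures shown without defined stereochemistry refer to stereoisomer mixtures.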

[7] = Liver Microsome Stability Assay (rat); settings: rat liver microsomes, with NADPH, 1.0 uM compound
Description: (§1) Stability of a compound was assessed in the presence of liver microsomes from various sources—mouse, rat, monkey and human liver microsomes. 1.0 uM compound, 0.4% DMSO in 0.1 M Potassium Phosphate with 1.0 mg/mL liver microsomes, were incubated at 37° C. with or without 1 mM NADPH. The samples were quenched at 0, and 30 minutes.

[8] = Liver Microsome Stability Assay (mouse); settings: mouse liver microsomes, with NADPH, 1.0 uM compound
Description: as §1

[9] = Liver Microsome Stability Assay (human); settings: human liver microsomes, with NADPH, 1.0 uM compound
Description: as §1

[10] = Liver Microsome Stability Assay (monkey); settings: monkey liver microsomes, with NADPH, 1.0 uM compound
Description: as §1

Row | Compound | IC50 [1] [µM] | IC50 [2] [µM] | 24 hr Dox Inducible TNFaFLGluc 293FRT/TO: TNF/PD1 [2] | IC50 [3] [µM] | IC50 [4] [µM] | 24 hr Dox Inducible IL2FLGluc 293FRT/TO: IL2/PD1 [4] | EC50 [5] [µM] | EC50 [6] [µM] | Liver Microsome Stability (Multiple Species): Rat - % Remaining after 30 min w/NADPH [7] [%] | Liver Microsome Stability (Multiple Species): Mouse - % Remaining after 30 min w/NADPH [8] [%] | Liver Microsome Stability (Multiple Species): Human - % Remaining after 30 min w/NADPH [9] [%] | Liver Microsome Stability (Multiple Species): Monkey - % Remaining after 30 min w/NADPH [10] [%]
1 | CC(CC(N)=O)n1cnc(/C=C/c2csc(NC(=O)c3cccn3Cc3ccnc(F)c3)n2)c1 (stereo not drawn) [Compound B111, (E)-N-(4-(2-(1-(4-amino-4-oxobutan-2-yl)-1H-imidazol-4-yl)vinyl)thiazol-2-yl)-1-((2-fluoropyridin-4-yl)methyl)-1H-pyrrole-2-carboxamide] | > 25 | > 25 | ⇔1.00 | > 25 | > 25 | <=>1.0 | > 25 | > 25 | 75.4 | 61.7 | 9.45 | 5.79
2 | N#CCn1cnc(/C=C/c2csc(NC(=O)c3cccn3Cc3ccnc(F)c3)n2)c1 [Compound B112, (E)-N-(4-(2-(1-(cyanomethyl)-1H-imidazol-4-yl)vinyl)thiazol-2-yl)-1-((2-fluoropyridin-4-yl)methyl)-1H-pyrrole-2-carboxamide] | 0.217 | > 25 | >115 | > 25 | > 25 | >110 | > 25 | > 25 | 41.8 | 66.5 | 1.7 | 1.11
3 | CC(C(N)=O)n1cnc(/C=C/c2csc(NC(=O)c3cccn3Cc3ccnc(F)c3)n2)c1 (stereo not drawn) [Compound B113, (E)-N-(4-(2-(1-(1-amino-1-oxopropan-2-yl)-1H-imidazol-4-yl)vinyl)thiazol-2-yl)-1-((2-fluoropyridin-4-yl)methyl)-1H-pyrrole-2-carboxamide] | > 25 | > 25 | <=>1.00 | > 25 | > 25 | <=>1.0 | > 25 | > 25 | 69.7 | 68.2 | 7.08 | 3.11
4 | O=C(Nc1nc(/C=C/c2c[nH]cn2)cs1)c1cccn1Cc1ccnc(F)c1 [Compound B114, (E)-N-(4-(2-(1H-imidazol-4-yl)vinyl)thiazol-2-yl)-1-((2-fluoropyridin-4-yl)methyl)-1H-pyrrole-2-carboxamide] | 5.26 | > 25 | >4.76 | > 25 | > 25 | >4.8 | > 25 | > 25 | 27.3 | 59.3 | 30.7 | 43.4
5 | NC(=O)Cn1cnc(/C=C/c2csc(NC(=O)c3cccn3Cc3ccnc(F)c3)n2)c1 [Compound B115] | > 25 | > 25 | <=>1.00 | > 25 | > 25 | <=>1.0 | > 25 | > 25 | 30 | 70.7 | 12.8 | 11.5
